Reference: patent US20260224688A1, “HELPER LIPIDS FOR NUCLEIC ACID DELIVERY” (SANOFI PASTEUR INC., priority 2023, published 2026)

What was measured:
[1] = Dynamic light scattering of lipid nanoparticles (size, PDI); assay type: physicochemical
Method: (§1) Lipid nanoparticle formulations 3 were prepared by Process A at a molar ratio of 40:1.5:30:28.5 (Cationic Lipid: DMG-PEG2000: Cholesterol: Helper Lipid) with the cationic lipids and helper lipids disclosed in the tables below. The Polydispersity Index (Pdl) of lipid nanoparticles can be determined by diluting the formulation in 10% trehalose at about 0.1 mg/ml mRNA concentration and then measuring the size on Malvern zetasizer. The lipid nanoparticle size can be obtained with Malvern Zetasizer Nano-ZS.
Dynamic light scattering (DLS) measurements were performed using a Malvern Instruments Zetasizer with a backscattering detector angle of 173° and a 4-mW, 633-nm He—Ne laser (Worcestershire, UK). The samples were analyzed by diluting in 10% Trehalose and measuring the size and Poly dispersity Index (PDI) in an optical grade polystyrene cuvette.

[2] = mRNA encapsulation efficiency of lipid nanoparticles; assay type: physicochemical; conditions: for Encapsulation efficiency (EE): LNP with cationic lipid CL-A
Excerpt: In embodiments, the lipid nanoparticle encapsulates a nucleic acid, optionally an mRNA encoding a peptide or protein. In embodiments, the lipid nanoparticle encapsulates an mRNA encoding a peptide or protein, optionally for use in a vaccine. In embodiments, the peptide is an antigen. As used herein, the phrase “encapsulation percentage” refers to the fraction of therapeutic agent (e.g. mRNA) that is effectively encapsulated within a liposomal-based vehicle (e.g. a lipid nanoparticle) relative to the initial fraction of therapeutic agent present in the lipid phase. In embodiments, the lipid nanoparticles have an encapsulation percentage for mRNA of at least 50%. In embodiments, the lipid nanoparticles have an encapsulation percentage for mRNA of at least 55%. In embodiments, the lipid nanoparticles have an encapsulation percentage for mRNA of at least 60%. In embodiments, the lipid nanoparticles have an encapsulation percentage for mRNA of at least 65%. In embodiments, the lipid nanoparticles have an encapsulation percentage for mRNA of at least 70%. In embodiments, the lipid nanoparticles have an encapsulation percentage for mRNA of at least 75%. In embodiments, the lipid nanoparticles have an encapsulation percentage for mRNA of at least 80%. In embodiments, the lipid nanoparticles have an encapsulation percentage for mRNA of at least 85%. In embodiments, the lipid nanoparticles have an encapsulation percentage for mRNA of at least 90%. In embodiments, the lipid nanoparticles have an encapsulation percentage for mRNA of at least 95%. In embodiments, the encapsulation percentage is calculated by performing the Ribogreen assay (Invitrogen) with and without the presence of 0.1% Triton-X 100.
The lipid nanoparticles in the examples of the present invention were formulated using Process A of WO 2018/089801 (see, e.g., Example 1 and FIG. 1 of WO 2018/089801). Process A (“A”) relates to a conventional method of encapsulating mRNA by mixing mRNA with a mixture of lipids, without first pre-forming the lipids into lipid nanoparticles. In an exemplary process, an ethanolic solution of a mixture of lipids (cationic lipid, phosphatidylethanolamine, cholesterol, and polyethylene glycol-lipid) at a fixed lipid to mRNA ratio were combined with an aqueous buffered solution of target mRNA at an acidic pH under controlled conditions to yield a suspension of uniform LNPs. After ultrafiltration and diafiltration into a suitable diluent system, the resulting nanoparticle suspensions were diluted to final concentration, filtered, and stored frozen at −80° C. until use.
as §1

hEPO [3] = test: IM EPO expression of LNPs containing new helper lipids (hEPO in serum by ELISA); assay type: in vivo, female BALB/cJ mice; conditions: for 6-h EPO / 24-h EPO: single IM injection; for 24-h EPO: serum 24 hours post injection; for Normalized Mean EPO expression: helper lipid CL-C formulations, IM, DOPE = 1
Method: Lipid nanoparticles were formulated containing the four lipid components shown below at a ratio of 40:30:28.5:1.5, complexed with a hEPO messenger RNA. • Cationic lipid, 40 mol % • Phospholipid (PEA) helper lipid, 30 mol % • Cholesterol, 28.5 mol % • DMG-PEG-2K (1,2-dimyristoyl-rac-glycero-3-methoxypolyethyleneglycol), 1.5 mol % The cationic lipid component of each formulation was selected from the compounds in the table below: […]
EPO expression studies were conducted with female BALB/cJ mice 6-8 weeks of age. Mice were dosed with […] EPO mRNA in 30 μL of LNPs by a single intramuscular (IM) injection into the gastrocnemius leg muscle. Blood samples were taken 6 and 24 hours post injection and hEPO levels were measured in the blood serum of the mice using an ELISA assay according to the manufacture's protocol. WO2022/099003 A1 also describes an in vivo assay for intramuscular administration (e.g. on page 46, paragraph [00206]).

hEPO [4] = test: IV EPO expression of LNPs (tail vein injection); assay type: in vivo, female BALB/cJ mice; conditions: cationic lipid CL-0137, helper lipid 30 mol %; 0.017 μg EPO mRNA tail vein; 6 hours; DOPE = 1
Method: Lipid nanoparticles were formulated containing the four lipid components shown below at a ratio of 40:30:28.5:1.5, complexed with a hEPO messenger RNA. • Cationic lipid CL-0137, 40 mol % • Helper lipid, 30 mol % • Cholesterol, 28.5 mol % • DMG-PEG-2K (1,2-dimyristoyl-rac-glycero-3-methoxypolyethyleneglycol), 1.5 mol %
EPO expression studies were conducted with female BALB/cJ mice 6-8 weeks of age. Mice were dosed with 0.017 μg EPO mRNA LNPs in a volume of 5 ul by a single tail vein injection. Blood samples were taken 6 hours post injection and hEPO levels were measured in the blood serum of the mice using an ELISA assay according to the manufacture's protocol.

[5] = LNP with cationic lipid CL-A, hEPO mRNA, 40:30:28.5:1.5
[6] = CL-B LNP, serum 6 hours post injection

SMILES | Polydispersity Index (PDI) ([1]; LNP with cationic lipid CL-A) | Size [1, 5] [nm] | PDI ([1]; LNP with cationic lipid CL-B) | Size ([1]; LNP with cationic lipid CL-B) [nm] | PDI ([1]; LNP with cationic lipid CL-C) | Size ([1]; LNP with cationic lipid CL-C) [nm] | PDI ([1]; LNP with cationic lipid CL-D) | Size ([1]; LNP with cationic lipid CL-D) [nm] | Encapsulation efficiency (EE) [2] [%] | EE ([2]; LNP with cationic lipid CL-B) [%] | EE ([2]; LNP with cationic lipid CL-C) [%] | EE ([2]; LNP with cationic lipid CL-D) [%] | 6-h EPO (hEPO [3]; CL-C LNP) [ng/mL] | 6-h EPO (hEPO [3]; CL-C LNP, (6-h)) [ng/mL] | Normalized Mean IV EPO expression (hEPO [4]) | 6-h EPO (hEPO [3]; [6]) [ng/mL] | 24-h EPO (hEPO [3]; CL-B LNP) [ng/mL] | 6-h EPO (hEPO [3]; CL-A LNP, 0.1 μg EPO mRNA in 30 μL, serum 6 hours post injection) [ng/mL] | Normalized Mean EPO expression (hEPO [3])
CC(C)CCCCOC(=O)CCCCCCC(=O)OCC(COP(=O)(O)OCCN)OC(=O)CCCCCCC(=O)OCCCCC(C)C (stereo not drawn) [Compound 2, O′^1,O^1-(3-(((2-Aminoethoxy)(hydroxy)phosphoryl)oxy)-propane-1,2-diyl) 8-bis(5-methylhexyl) di(octanedioate)] | 0.031 | 137 | 0.124 | 97.0 | 0.102 | 88.5 | 0.064 | 114.3 | 69 | 37 | 69 | 78 |  |  |  |  |  |  | 
CCCCCCCCCC(CCCCCCCCC)C(=O)OCC(COP(=O)(O)OCCN)OC(=O)C(CCCCCCCCC)CCCCCCCCC (stereo not drawn) [Compound 3, 3-(((2-Aminoethoxy)(hydroxy)phosphoryl)oxy)propane-1,2-diyl bis(2-nonylundecanoate)] | 0.045 | 137 | 0.101 | 116.4 | 0.038 | 111.9 |  |  | 65 | 25 | 88 |  | 6.3 | 13.4 | 3.32 |  |  |  | 
CCCCCCCCC(CCCCC)COC(=O)CCC(=O)OCC(COP(=O)(O)OCCN)OC(=O)CCC(=O)OCC(CCCCC)CCCCCCCC (stereo not drawn) [Compound 4, O,O′-(3-(((2-Aminoethoxy)(hydroxy)phosphoryl)oxy)propane-1,2-diyl) bis(2-pentyldecyl) disuccinate] | 0.048 | 125 | 0.112 | 104.7 | 0.123 | 109.5 |  |  | 85 | 86 | 87 |  | 20.1 | 22.3 | 2.38 | 13.7 | 11.6 |  | 
CCCCCCCCC(CCCCC)COC(=O)CCC(=O)OCC(COP(=O)(O)OCCN)OC(=O)CCC(=O)OCC(CCCCC)CCCCCCCC (stereo not drawn) [Compound 5, O,O′-(3-(((2-Aminoethoxy)(hydroxy)phosphoryl)oxy)propane-1,2-diyl) bis(2-pentyldecyl) disuccinate] | 0.106 | 121 | 0.108 | 98.9 | 0.047 | 97.9 |  |  | 91 | 90 | 88 |  | 10.1 | 13.3 | 1.25 | 9.8 | 6.4 |  | 
CCCCCCCCC(CCCCCCCC)OC(=O)CCCCCCC(=O)OCC(COP(=O)(O)OCCN)OC(=O)CCCCCCC(=O)OC(CCCCCCCC)CCCCCCCC (stereo not drawn) [Compound 6, 2-Aminoethyl (2,3-bis((8-(heptadecan-9-yloxy)-8-oxooctanoyl)oxy)propyl) phosphate] | 0.066 | 159 | 0.049 | 119.9 | 0.037 | 108.9 | 0.063 | 131.5 | 90 | 94 | 94 | 94 | 27.1 | 39.9 | 2.67 | 28.4 | 16.2 |  | 
CCCCCCCCC(CCCCCCCC)OC(=O)CCCCCCC(=O)OCC(COP(=O)(O)OCCN(C)CCCO)OC(=O)CCCCCCC(=O)OC(CCCCCCCC)CCCCCCCC (stereo not drawn) [Compound 27] | 0.059 | 153 | 0.108 | 123.9 | 0.129 | 97.0 |  |  | 94 | 98 | 97 |  |  | 46.9 |  | 53 |  | 25.6 | 
CCCCCCCCC(CCCCCCCC)OC(=O)CCCCCCC(=O)OC[C@@H](COP(=O)(O)OCCN(C)CCCO)OC(=O)CCCCCCC(=O)OC(CCCCCCCC)CCCCCCCC [Compound 28, 8-Di(heptadecan-9-yl) O′1,O1-((2S)-3-((hydroxy(2-((3-hydroxypropyl)(methyl)amino)ethoxy)phosphoryl)oxy)propane-1,2-diyl) di(octanedioate)] |  |  |  |  |  |  |  |  |  |  |  |  |  |  |  |  |  |  | 1.77
CCCCCCCCC(CCCCCCCC)OC(=O)CCCCCCC(=O)OC[C@@H](COP(=O)(O)OCC[N+](C)(C)CCCO)OC(=O)CCCCCCC(=O)OC(CCCCCCCC)CCCCCCCC [Compound 38, (S)-2,3-Bis((8-(heptadecan-9-yloxy)-8-oxooctanoyl)oxy)propyl (2-((3-hydroxypropyl)dimethylammonio)ethyl) phosphate] |  |  |  |  |  |  |  |  |  |  |  |  |  |  | 0.8 |  |  |  | 
CCCCCCCCC(CCCCCCCC)OC(=O)CCCCCCC(=O)OCC(COP(=O)(O)OCCCN(C)C)OC(=O)CCCCCCC(=O)OC(CCCCCCCC)CCCCCCCC (stereo not drawn) [Compound 60] |  |  |  |  |  |  |  |  |  |  |  |  |  |  | 4.61 |  |  |  | 1.39
CCCCCCCCC(CCCCCCCC)OC(=O)CCCCCCC(=O)OC[C@@H](COP(=O)(O)OCCCCCN(C)C)OC(=O)CCCCCCC(=O)OC(CCCCCCCC)CCCCCCCC [Compound 65, O′^1,O^1-((2S)-3-((((5-(Dimethylamino)pentyl)oxy)(hydroxy)phosphoryl)-oxy)propane-1,2-diyl) 8-di(heptadecan-9-yl) di(octanedioate)] |  |  |  |  |  |  |  |  |  |  |  |  |  |  | 2.14 |  |  |  | 0.825
